Patent US8377983B2, “Benzazole derivatives, compositions, and methods of use as aurora kinase inhibitors” (TransTech Pharma, Inc., priority 2006, dated 2013)
pIC50: −log10 of the molar value.

What was measured:
[1] = tested on: human MiaPaCa-2 pancreatic xenografts; test: MiaPaCa-2 xenograft model, Example 88 alone and in combination with erlotinib; assay type: in vivo, athymic mice; settings: for Median Tumor Size: Example 88 10 mg/kg i.p. b.i.d. 10 days, erlotinib 50 mg/kg p.o. daily 14 days; for complete responders (CR, 100% reduction in tumor size) / partial responders (PR, greater than 50% reduction in tumor size): day 42, out of 8 mice, 10 mg/kg
Procedure: (§1) Compounds were dosed on the following schedules:
2) Erlotinib was dosed 50 mg/kg, p.o., daily for 14 days (days 1-14).
Mice-bearing sc tumors were randomized, and treatment groups consisted of 8 mice.

[2] = tested on: HCT-116, BxPC-3, A549, BT-549, LNCaP, MIA Paca-2 tumor cells; test: In vitro cell proliferation (alamarBlue); assay type: cell-based; settings: Homo sapiens; 96 hr incubation; read-out: IC50 against at least one of HCT-116, MIA Paca-2, or LNCaP cells
Procedure: Compounds are tested for their ability to inhibit cell proliferation and viability. The metabolic reduction of alamarBlue™ (Biosource cat. no. DAL1100) was used to measure cell viability.
The anti-proliferative activity of compounds is studied using a panel of tumor cells: HCT-116 (human colorectal carcinoma cell line), BxPC-3 (human pancreatic adenocarcinoma cell line), A549 (human lung carcinoma cell line), BT-549 (human breast carcinoma cell line), LNCaP (human prostate carcinoma cell line), and MIA Paca-2 (human pancreatic carcinoma cell line). These adherent cells (1,000-20,000) are plated in complete media (RPMI-1640, DMEM, F12K, or McCoy's 5A) containing 10% fetal bovine serum (Gibco) in tissue culture treated 96-well plates (Costar) and placed in a humidified incubator at 37° C., […], 5% CO2 for 18-24 hr. Media was removed and replaced with 90 μL fresh media. Compound is diluted in media containing 3% DMSO and added to cells. Background (C^−) relative fluorescent units are determined by incubating alamarBlue™ reagent for 6 hr using untreated cells plated 18 hr earlier. Untreated cells or cells containing compound are incubated for 96 hr. During the last 6 hr of the incubation period, alamarBlue™ reagent (10 μL) was added to each well and incubated in a humidified incubator at 37° C., […], 5% CO2.
AlamarBlue™ reduction is measured in a fluorescence plate reader with instrument settings for excitation at 530 nm and emission at 590 nm. […] Compound IC50 values are determined from % inhibition versus compound concentration curve plots using GraphPad Prism™ according to the 4 parameter logistic equation Y=Bottom+(Top−Bottom)/1+10^((Log EC50−X)*HillSlope)).

[3] = tested on: human MiaPaCa-2 pancreatic xenografts; test: MiaPaCa-2 xenograft model, Example 88 alone and in combination with gemcitabine; assay type: in vivo, athymic mice; settings: for Median Tumor Size: Example 88 10 mg/kg i.p. b.i.d. 10 days, gemcitabine 120 mg/kg i.p. q3d×4
Procedure: as §1
2) Gemcitabine was dosed 120 mg/kg, i.p., q3d×4 (days 1, 4, 7, 10).
Drug treatment started when mean tumor sizes reached approximately 120 mg (day 8). Mice-bearing sc tumors were randomized, and treatment groups consisted of 8 mice. The median tumor size for each group at various points in the study are listed below in Table B.

[4] = day 8 of study (treatment start)
[5] = day 42, out of 8 mice, Example 88 10 mg/kg, gemcitabine 120 mg/kg

C#Cc1cccc(Nc2ncnc3cc(OCCOC)c(OCCOC)cc23)c1 [Erlotinib, erlotinib, reference compound]
Median Tumor Size [1, 4]: 120 mg | Median Tumor Size ([1]; day 10 of study): 144 mg | Median Tumor Size ([1]; day 13 of study): 192 mg | Median Tumor Size ([1]; day 16 of study): 267 mg | Median Tumor Size ([1]; day 20 of study): 363 mg | inhibition of tumor growth relative to vehicle-treated tumors ([1]; day 23, Example 88 10 mg/kg, erlotinib 50 mg/kg): 16% | Median Tumor Size ([1]; day 23 of study): 507 mg | Median Tumor Size ([1]; day 27 of study): 700 mg | Median Tumor Size ([1]; day 30 of study): 908 mg | Median Tumor Size ([1]; day 34 of study): 1224 mg | Median Tumor Size ([1]; day 37 of study): 1296 mg | complete responders (CR, 100% reduction in tumor size) ([1]; erlotinib 50 mg/kg): 0/8 | partial responders (PR, greater than 50% reduction in tumor size) ([1]; erlotinib 50 mg/kg): 0/8 | Median Tumor Size ([1]; day 42 of study): 1368 mg

CN1CCN(c2cc3[nH]c(Nc4ccccc4C(F)(F)F)nc3cc2C(=O)Nc2ccc3cn[nH]c3c2)CC1 [Example 50, 6-(4-Methylpiperazin-1-yl)-2-(2-trifluoromethyl-phenylamino)-1H-benzimidazole-5-carboxylic acid (1H-indazol-6-yl)-amide]
pIC50 [2]: ≥ 5.52

Cc1cccnc1Nc1nc2cc(C(=O)Nc3ccc4cn[nH]c4c3)ccc2[nH]1 [Example 36, 2-(3-Methylpyridin-2-ylamino)-3H-benzimidazole-5-carboxylic acid(1H-indazol-6-yl)-amide]
pIC50 [2]: ≥ 5.52

O=C(Nc1ccc2cn[nH]c2c1)c1cc2nc(Nc3ccccc3C(F)(F)F)[nH]c2cc1N1CCCCC1 [Example 57, 6-Piperidin-1-yl-2-(2-trifluoromethyl-phenylamino)-1H-benzimidazole-5-carboxylic acid (1H-indazol-6-yl)-amide]
pIC50 [2]: ≥ 5.52

Nc1ccn([C@@H]2O[C@H](CO)[C@@H](O)C2(F)F)c(=O)n1 [Gemcitabine, reference compound]
Median Tumor Size [3, 4]: 120 mg | Median Tumor Size ([3]; day 10 of study): 144 mg | Median Tumor Size ([3]; day 13 of study): 144 mg | Median Tumor Size ([3]; day 16 of study): 153 mg | Median Tumor Size ([3]; day 20 of study): 221 mg | inhibition of tumor growth relative to vehicle-treated tumors ([3]; day 23, Example 88 10 mg/kg, gemcitabine 120 mg/kg): 60% | Median Tumor Size ([3]; day 23 of study): 246 mg | Median Tumor Size ([3]; day 27 of study): 336 mg | Median Tumor Size ([3]; day 30 of study): 472 mg | Median Tumor Size ([3]; day 34 of study): 675 mg | Median Tumor Size ([3]; day 37 of study): 824 mg | complete responders (CR, 100% reduction in tumor size) [3, 5]: 0/8 | partial responders (PR, greater than 50% reduction in tumor size) [3, 5]: 0/8 | Median Tumor Size ([3]; day 42 of study): 988 mg

O=C(Nc1ccc2cn[nH]c2c1)c1cc2nc(Nc3ccccc3C(F)(F)F)[nH]c2cc1N1CCOCC1 [Example 54, 6-Morpholin-4-yl-2-(2-trifluoromethylphenylamino)-1H-benzimidazole-5-carboxylic acid (1H-indazol-6-yl)-amide]
pIC50 [2]: ≥ 5.52

Cc1cccnc1Nc1nc2cc(C(=O)Nc3ccc4cn[nH]c4c3)c(N3CCOCC3)cc2[nH]1 [Example 60, 2-(3-Methylpyridin-2-ylamino)-6-morpholin-4-yl-1H-benzimidazole-5-carboxylic acid (1H-indazol-6-yl)-amide]
pIC50 [2]: ≥ 5.52

O=C(Nc1ccc2cn[nH]c2c1)c1ccc2[nH]c(Nc3ccccc3C(F)(F)F)nc2c1 [Example 35, 2-(2-Trifluoromethylphenylamino)-3H-benzimidazole-5-carboxylic acid (1H-indazol-6-yl)-amide]
pIC50 [2]: ≥ 5.52

CCc1cccc(CC)c1Nc1nc2cc(C(=O)Nc3ccc4cn[nH]c4c3)ccc2[nH]1 [Example 91, 2-(2,6-diethylphenylamino)-3H-benzimidazole-5-carboxylic acid (1H-indazol-6-yl)-amide]
complete responders (CR, 100% reduction in tumor size) ([1]; erlotinib 50 mg/kg): 0/8 | partial responders (PR, greater than 50% reduction in tumor size) ([1]; erlotinib 50 mg/kg): 0/8

CC(C)c1ccccc1Nc1nc2cc(C(=O)Nc3ccc4cn[nH]c4c3)c(N3CCN(C)CC3)cc2[nH]1 [Example 48, 2-(2-Isopropylphenylamino)-6-(4-methyl-piperazin-1-yl)-1H-benzimidazole-5-carboxylic acid (1H-indazol-6-yl)-amide]
pIC50 [2]: ≥ 5.52

CC(C)c1ccccc1Nc1nc2cc(C(=O)Nc3ccc4cn[nH]c4c3)ccc2[nH]1 [Example 27, 2-(2-Isopropylphenylamino)-3H-benzimidazole-5-carboxylic acid (1H-indazol-6-yl)-amide]
pIC50 [2]: ≥ 5.52

Cc1cccnc1Nc1nc2cc(C(=O)Nc3ccc4cn[nH]c4c3)c(N3CCN(C)CC3)cc2[nH]1 [Example 58, 6-(4-Methyl-piperazin-1-yl)-2-(3-methyl-pyridin-2-ylamino)-1H-benzimidazole-5-carboxylic acid (1H-indazol-6-yl)-amide]
pIC50 [2]: ≥ 5.52
